{"source": "patent US4000196A", "about": "“1,1,3-Trisubstituted hydroxyguanidines” (E. I. Du Pont de Nemours and Company, priority 1974, dated 1976)", "key": {"[1]": {"assay": "Chelation of metal ions in aqueous solutions", "assay_type": "physicochemical", "description": "(§1) The 1,1,3-trisubstituted hydroxyguanidines of the invention chelate metal ions in aqueous solutions, and the chelate complexes can then be extracted by a solvent such as 1-butanol. The following is an example.\n(§2) Aqueous solutions of cobaltous chloride and cupric acetate were prepared by dissolving 0.5 g in separate 5 ml portions of water. One ml of each solution was mixed with 1 ml of an aqueous methanol solution of 1,3-dimethyl-1-benzyl-2-hydroxyguanidine made by dissolving 0.2 g of the hydroxyguanidine in 5 ml methanol and 5 ml water. The addition was followed by an immediate color change."}, "[2]": {"assay": "Chelation of cobalt ions (cobaltous chloride) in aqueous solution", "assay_type": "physicochemical", "settings": "cobaltous chloride in water mixed with aqueous methanol solution of hydroxyguanidine", "description": "as §1, §2"}, "[3]": {"assay": "Chelation of copper ions (cupric acetate) in aqueous solution", "assay_type": "physicochemical", "settings": "cupric acetate in water mixed with aqueous methanol solution of hydroxyguanidine", "description": "as §1, §2"}, "[4]": {"assay": "Complex formation with titanium (tetraisopropyl titanate)", "assay_type": "physicochemical", "settings": "methanol solution of tetraisopropyl titanate"}, "[5]": {"tested_on": "tetrabenazine-induced ptosis in mice", "assay": "Prevention of tetrabenazine-induced sedation and depression in mice (relief of ptosis)", "assay_type": "in vivo, Carworth CF1 S female mice", "settings": "Mus musculus, 1 h; oral; 5, 25 and 125 mg/kg; tetrabenazine 32 mg/kg i.p. 30 min later; read 30 min after tetrabenazine; groups of 10 female mice; read-out: ptosis ED50, i.e., the dose which blocked ptosis in 50% of the mice", "description": "This mouse test is predictive of human antidepressant response (Everett, G.M., \"The Dopa Response Potentiation Test and Its Use In Screening for Antidepressant Drugs\", pp. 164-167 in \"Antidepressant Drugs\", Proceeding of the First International Symposium, S. Garattini and M. N. G. Dukes, eds., 1967).\nGroups of 10 Carworth CF1 S female mice, 18-21 g each, were fasted 1.5 hours and were intubated with a hydroxyguanidine as antagonist to tetrabenazine at oral doses of 5, 25 and 125 mg/kg in 0.20 ml of 1% methyl cellulose (Methocel). Thirty minutes later the mice were challenged with tetrabenazine, 32 mg/kg intraperitoneally (dissolved in 0.20 ml of 0.05M KCl at pH 2.0). One hour after the hydroxyguanidine compound (30 minutes after tetrabenazine) the mice were examined for signs of exploratory activity and ptosis (eye-lid closure). Normal exploratory activity (relief from sedation) was recorded when a mouse lifted by the tail from a group of 10 in a testing box and placed on a stainless steel testing box lid (12.5 inches × 8 inches with 0.33 inch mesh) either turned its head horizontally 30° or moved to the edge of the screen within 10 seconds after being placed on the screen. Relief from ptosis was recorded when exactly 2 seconds after placing the mouse facing the observer, lid closure was less than 50% in both eyes. […]"}}}
{"smiles": "CNC(=NO)N(C)c1ccccc1", "note": "[Example 2, 1-Phenyl-1,3-dimethyl-2-hydroxyguanidine]", "values": [{"measurement": "chelating of metal ions", "setting": "[1]; aqueous solutions", "value": "Chelating also occured"}]}
{"smiles": "CNC(=NO)N(C)Cc1ccccc1", "note": "[Example 4, 1-Benzyl-1,3-dimethyl-2-hydroxyguanidine]", "values": [{"measurement": "immediate color change of cobalt solution", "setting": "[2]", "value": "from red to pink"}, {"measurement": "immediate color change of copper solution", "setting": "[3]", "value": "from blue to green"}, {"measurement": "extraction of the metal ion from water into 1-butanol", "setting": "[1]; cobalt and copper solutions shaken with 2-3 ml of 1-butanol", "value": "colored organic layers, indicative of extraction of the metal ion from the water"}, {"measurement": "complex of titanium with the hydroxyguanidine", "setting": "[4]", "value": "a bright yellow complex of titanium with the hydroxyguanidine was formed"}]}
{"smiles": "CCNC(=NO)N(C)Cc1ccccc1", "note": "[Example 5, 1-Benzyl-1-methyl-3-ethyl-2-hydroxyguanidine]", "values": [{"measurement": "ED50", "setting": "[5]", "value": 19, "unit": "mg/kg"}]}
{"smiles": "CCNC(=NO)N(C)c1ccccc1", "note": "[Example 3, 1-Phenyl-1-methyl-3-ethyl-2-hydroxyguanidine]", "values": [{"measurement": "ED50", "setting": "[5]", "value": 2.7, "unit": "mg/kg"}]}
